We go through one substance from PMC12483982, “MTS1 regulates rice plant architecture by mediating phosphoinositide metabolism” (Plant Biotechnology Journal, 2025).

This assay deals with T1, NGR5 (GST-NGR5) (Oryza sativa, UniProt X5HYT8).
T1 construct: gene SMOS1; recombinant GST fusion from E. coli Rosetta (DE3), glutathione sepharose, GST tag kept; NT-647 NHS labelled
T1 sequence (X5HYT8 1-425): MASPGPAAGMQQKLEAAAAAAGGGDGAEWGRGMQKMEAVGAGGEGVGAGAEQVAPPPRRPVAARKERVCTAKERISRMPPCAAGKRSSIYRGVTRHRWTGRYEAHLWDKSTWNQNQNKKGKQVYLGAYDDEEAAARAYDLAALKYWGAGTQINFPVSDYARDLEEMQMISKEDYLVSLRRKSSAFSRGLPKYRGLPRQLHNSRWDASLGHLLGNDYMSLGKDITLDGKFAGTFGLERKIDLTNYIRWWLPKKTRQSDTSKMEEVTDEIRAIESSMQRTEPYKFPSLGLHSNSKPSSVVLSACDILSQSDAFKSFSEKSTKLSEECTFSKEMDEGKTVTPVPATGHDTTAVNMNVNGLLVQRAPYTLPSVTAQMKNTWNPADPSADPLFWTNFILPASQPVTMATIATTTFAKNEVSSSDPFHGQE
Nature of the assay: microscale thermophoresis (NT.[…]). It counts as binding. Particulars: NT-647 NHS-labelled GST-NGR5 10 nM; phosphate buffer with 0.005% Tween-20; 30 min; also seen in lipid-protein overlay. On the technique in general: In MST a laser heats a spot of the sample, and binding alters the fluorescence response.

Take phosphatidylinositol 4-phosphate [PI4P]: binding was characterised by a dissociation constant (Kd) of 1140 ± 600 nM.
